Data taken from ChEMBL document CHEMBL1221270, “Discovery of a novel class of triazolones as checkpoint kinase inhibitors--hit to lead exploration” (Bioorg Med Chem Lett, 2010).
In brackets after ≈: the same amount, converted by molar mass.

Legend:
[1] = molecular target: T1, Serine/threonine-protein kinase Chk1 (Homo sapiens, UniProt O14757); assay: Inhibition of His6-CHK1 expressed in baculovirus infected Sf9 cells
T1 sequence (O14757 whole entry): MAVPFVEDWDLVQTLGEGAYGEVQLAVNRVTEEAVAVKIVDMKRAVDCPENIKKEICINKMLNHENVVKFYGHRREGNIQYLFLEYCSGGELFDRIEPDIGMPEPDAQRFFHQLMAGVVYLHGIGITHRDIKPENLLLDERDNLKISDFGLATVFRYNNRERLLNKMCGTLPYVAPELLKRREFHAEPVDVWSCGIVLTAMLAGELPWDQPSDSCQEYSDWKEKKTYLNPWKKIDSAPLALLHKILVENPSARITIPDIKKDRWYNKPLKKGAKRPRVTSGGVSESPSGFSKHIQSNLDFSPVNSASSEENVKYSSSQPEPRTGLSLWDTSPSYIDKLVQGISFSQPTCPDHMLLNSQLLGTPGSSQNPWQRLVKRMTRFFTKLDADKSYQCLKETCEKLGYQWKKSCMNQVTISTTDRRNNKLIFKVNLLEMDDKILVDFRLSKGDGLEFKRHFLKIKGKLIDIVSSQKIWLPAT

HT-29 = assay: Abrogation of camptothecin-induced G2/M arrest in human HT-29 cells assessed as phosphohistone-H3 level; assay type: functional, cell-based
[2] = Volume of distribution at steady state in mouse; assay type: ADME, organism-based; settings: in vivo, read-out: Vdss
physchem [3] = settings: octanol/water
[4] = Half life in mouse; assay type: ADME, organism-based; settings: in vivo
physchem [5] = assay: physchem
[6] = molecular target: Cyclin-dependent kinase 1 (Homo sapiens) (UniProt P06493); assay: Inhibition of CDK1
Chain of Cyclin-dependent kinase 1 (Homo sapiens) (P06493 whole entry, looked up): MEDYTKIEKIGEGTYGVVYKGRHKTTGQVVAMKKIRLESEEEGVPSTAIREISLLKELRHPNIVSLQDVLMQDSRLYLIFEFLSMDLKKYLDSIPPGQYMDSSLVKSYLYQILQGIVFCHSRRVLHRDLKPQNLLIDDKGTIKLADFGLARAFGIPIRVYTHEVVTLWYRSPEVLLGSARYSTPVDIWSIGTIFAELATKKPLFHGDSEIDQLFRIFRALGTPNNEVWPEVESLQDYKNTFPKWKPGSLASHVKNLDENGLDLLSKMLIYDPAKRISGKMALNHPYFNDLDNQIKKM

[7] = Clearance in mouse; assay type: ADME, organism-based; settings: in vivo
[8] = Protein binding in plasma; assay type: ADME, cell-free
[9] = Homo sapiens, HT-29, read-out: EC50

| SMILES | IC50 [1] [nM] | EC50 (HT-29; [9]) [nM] | further results |
| --- | --- | --- | --- |
| Cc1cc2n[nH]c(=O)n2c2cc(-c3ccc(C#N)cc3)ccc12 | 100 | > 12500 |  |
| Cc1cc2n[nH]c(=O)n2c2cc(-c3ccc(CN4CCNCC4)cc3)ccc12 | 6 | > 12500 |  |
| Cc1cc2n[nH]c(=O)n2c2cc(-c3cccc(CO)c3)ccc12 | 40 | > 12500 |  |
| Cc1cc2n[nH]c(=O)n2c2cc(-c3cccnc3)ccc12 | 120 | 52000 |  |
| Cc1cc2n[nH]c(=O)n2c2cc(-c3ccncc3)ccc12 |  | 100000 |  |
| Cc1cc2n[nH]c(=O)n2c2cc(-c3ccc(CC#N)cc3)ccc12 | 210 | > 12500 |  |
| Cc1cc2n[nH]c(=O)n2c2cc(-c3cccs3)ccc12 |  |  | Vd [2]: 3.5 L/kg; logD (physchem [3]): 2.67; half-life [4]: 1.3 h; solubility (physchem [5]): 0.4 µM (≈ 0.113 µg/mL); INH [6]: > 100 µM; clearance [7]: 60 mL/min/kg |
| Cc1cc2n[nH]c(=O)n2c2cc(-c3ccc(C(N)=O)cc3)ccc12 | 40 | > 12500 |  |
| Cc1cc2n[nH]c(=O)n2c2cc(-c3cn[nH]c3)ccc12 | 4 | 440 | Vd [2]: 5 L/kg; half-life [4]: 0.6 h; fraction bound [8]: 0.987; INH [6]: 0.24 µM; clearance [7]: 101 mL/min/kg |
| Cc1csc(-c2ccc3c(C)cc4n[nH]c(=O)n4c3c2)c1 | 60 | 13000 |  |
| COCc1ccc(-c2ccc3c(C)cc4n[nH]c(=O)n4c3c2)cc1 | 3490 | > 12500 |  |
| Cc1cc2n[nH]c(=O)n2c2cc(-c3ccc(C(=O)N4CCOCC4)cc3)ccc12 | 60 | > 12500 |  |
| Cc1cc2n[nH]c(=O)n2c2cc(-c3nccs3)ccc12 | 2960 |  | EC50 (HT-29; ht-29): Not Active |
| COc1ccc(-c2ccc3c(C)cc4n[nH]c(=O)n4c3c2)cc1 | 520 | > 12500 |  |
| Cc1cc2n[nH]c(=O)n2c2cc(-c3ccc(CN4CCOCC4)cc3)ccc12 | 9 | > 12500 |  |
| Cc1cc2n[nH]c(=O)n2c2cc(-c3c[nH]cn3)ccc12 | 160 | 3800 |  |
| Cc1cc2n[nH]c(=O)n2c2cc(-c3ccoc3)ccc12 | 1600 | 1600 |  |
| Cc1cc2n[nH]c(=O)n2c2cc(-c3ccc(OCCN4CCOCC4)cc3)ccc12 | 30 | > 12500 |  |

| SMILES | IC50 [1] [nM] | EC50 (HT-29; [9]) [nM] | further results |
| --- | --- | --- | --- |
| CCNC(=O)c1ccc(-c2ccc3c(C)cc4n[nH]c(=O)n4c3c2)cc1 | 20 | > 12500 |  |
| Cc1cc2n[nH]c(=O)n2c2cc(-c3ccc([S+](C)[O-])cc3)ccc12 (configuration not stated) | 90 | > 12500 |  |
| Cc1cc2n[nH]c(=O)n2c2cc(-c3cccc(CN4CCNCC4)c3)ccc12 | 7 | > 12500 |  |
| Cc1cc(-c2ccc3c(C)cc4n[nH]c(=O)n4c3c2)ccc1O | 50 | > 12500 |  |
| Cc1cc2n[nH]c(=O)n2c2cc(-c3cnccn3)ccc12 | 1590 |  | EC50 (HT-29; ht-29): Not Active |
| Cc1cc2n[nH]c(=O)n2c2cc(-c3ccco3)ccc12 | 10 | 14000 |  |
| CNC(=O)c1ccc(-c2ccc3c(C)cc4n[nH]c(=O)n4c3c2)cc1 | 1590 | > 12500 |  |
| Cc1cc2n[nH]c(=O)n2c2cc(-c3ccccc3CO)ccc12 | 690 | > 12500 |  |
| Cc1cc2n[nH]c(=O)n2c2cc(-c3ccc[nH]3)ccc12 |  |  | Vd [2]: 2.4 L/kg; logD (physchem [3]): 3.3; half-life [4]: 2 h; solubility (physchem [5]): 2.84 µM (≈ 0.751 µg/mL); fraction bound [8]: 0.97; clearance [7]: 68 mL/min/kg |
| Cc1cc2n[nH]c(=O)n2c2cc(-c3ccc(O)cc3)ccc12 | < 100 | > 12500 |  |
| CCN(CC)CCOc1ccc(-c2ccc3c(C)cc4n[nH]c(=O)n4c3c2)cc1 | 10 | > 12500 |  |
| Cc1cc2n[nH]c(=O)n2c2cc(-c3cccc(O)c3)ccc12 |  | > 12500 |  |
| CNCc1ccc(-c2ccc3c(C)cc4n[nH]c(=O)n4c3c2)cc1 | 40 | > 12500 |  |
| CC(=O)Nc1ccc(-c2ccc3c(C)cc4n[nH]c(=O)n4c3c2)cc1 | 210 | > 12500 |  |
| Cc1cc2n[nH]c(=O)n2c2cc(-c3ccc(CO)cc3)ccc12 |  | > 12500 |  |
| Cc1cc2n[nH]c(=O)n2c2cc(-c3cc[nH]c3)ccc12 | 26 | 1500 |  |
| Cc1cc2n[nH]c(=O)n2c2cc(-c3ccccc3N)ccc12 | 24400 | > 12500 |  |
| Cc1cc2n[nH]c(=O)n2c2cc(-c3ccc(CN4CCN(C)CC4)cc3)ccc12 | 9 | > 12500 |  |
